Results from patent US11142535B2, “Heterocyclic compound as Syk inhibitor and/or Syk-HDAC dual inhibitor” (Hangzhou Innogate Pharma Co., Ltd., priority 2016, dated 2021).

What was measured:
SYK protein kinase = SYK protein kinase (Homo sapiens (Human), UniProt P43405); assay: Syk kinase activity inhibition, Caliper mobility shift assay; format: biochemical; conditions: Peptide FAM-P22 and ATP, 30 minutes, 28° C.
Protocol: Measure of SYK protein kinase activity was carried out by using the Caliper mobility shift assay. The compound was dissolved with DMSO and diluted with kinase buffer (20 mM HEPES pH 7.5, 0.01% Triton X-100, 5 mM MgCl2, 1 mM MnCl2, 2 mM DTT), and 5 μl of 5 times the final concentration of the compounds (10% DMSO) were added to 384 well plate. […] The mixture was incubated for 30 minutes under 28° C., and 25 μl of stop buffer (100 mM HEPES pH 7.5, 0.015% Brij-35, 0.2% Coating Reagent #3, 50 mM EDTA) was added to terminate the reaction. Conversion rate data was read by Caliper EZ Reader II (Caliper Life Sciences). Conversion rate was converted to inhibition rate data (% inhibition rate=(max−conversion rate)/(max−min)*100). The max refers to the conversion rate of the DMSO control, and min refers to the conversion rate of the enzyme-free control. The curve was drawn with the compound concentration and inhibition rate as the horizontal and vertical coordinates, and the curve was fitted with the XLFit excel add-in version 4.3.1 Software, and IC50 was calculated.

HDAC1 = HDAC1 (Homo sapiens (Human), UniProt Q13547); assay: HDAC-1 activity inhibition, fluorescence (Synergy MX); format: biochemical; conditions: trypsin and Ac-peptide substrate, 60 minutes, room temperature
Sequence of HDAC1 (Q13547 whole entry, species assumed): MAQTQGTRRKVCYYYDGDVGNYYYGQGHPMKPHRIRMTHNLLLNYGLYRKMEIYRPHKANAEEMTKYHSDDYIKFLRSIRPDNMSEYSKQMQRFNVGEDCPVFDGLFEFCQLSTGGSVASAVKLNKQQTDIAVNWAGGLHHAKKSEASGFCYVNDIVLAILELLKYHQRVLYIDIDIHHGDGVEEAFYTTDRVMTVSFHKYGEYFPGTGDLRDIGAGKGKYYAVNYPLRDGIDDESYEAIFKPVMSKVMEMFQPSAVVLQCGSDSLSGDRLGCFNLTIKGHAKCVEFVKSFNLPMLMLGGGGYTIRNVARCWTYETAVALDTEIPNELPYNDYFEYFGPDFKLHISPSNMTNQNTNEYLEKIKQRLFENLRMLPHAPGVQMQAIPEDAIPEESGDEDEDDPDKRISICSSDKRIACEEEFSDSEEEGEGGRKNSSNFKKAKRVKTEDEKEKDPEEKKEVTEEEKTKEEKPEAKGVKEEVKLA
Protocol: HDAC activity was measured by the Synergy MX Multi-Function Microplate Reader. The compounds were dissolved with DMSO, and transferred to a 384 well test plate using an Echo non-contact nanoscale sonic pipetting system. 15 μl of enzyme (HDAC1/HDAC6, respectively) solvent was added, and incubated at room temperature for 15 minutes, then 10 μl of substrate (trypsin and Ac-peptide) solution was added. […] Fluorescence intensity signal was convented into inhibition rate data (% inhibition rate=(max−fluorescence intensity)/(max−min)*100). The max refers to the fluorescence intensity of the DMSO control, and min refers to the fluorescence intensity of the enzyme-free control. The curve was drawn with the compound concentration and inhibition rate as the horizontal and vertical coordinates, and the curve was fitted with the GraphPad Prism V5.0 Software, and IC50 was calculated.

| SMILES | IC50 (SYK protein kinase) | IC50 (HDAC1) |
| --- | --- | --- |
| O=C(N1CCN2c3ccc(Nc4nc(-c5ccc6cn[nH]c6c5)cn5ccnc45)cc3OC[C@H]2C1)C(F)(F)F [Compound 9R] | < 0.1 µM | – |
| O=C(NO)c1ccc(NC(=O)c2cccc(-c3cn4ccnc4c(Nc4ccc(N5CCOCC5)cc4)n3)c2)cc1 [Compound 13] | < 0.1 µM | < 0.2 µM |
| O=C(CCCCCCn1ncc2ccc(-c3cn4ccnc4c(Nc4ccc(N5CCOCC5)cc4)n3)cc21)NO [Compound 14] | < 0.5 µM | < 0.02 µM |
| CN(CCN(C)c1ncc(C(=O)NO)cn1)c1ccc(Nc2nc(-c3ccc4cn[nH]c4c3)cn3ccnc23)cc1 [Compound 23] | < 0.05 µM | < 0.03 µM |

Results, then the molecule that gave them:

| IC50 (SYK protein kinase) | IC50 (HDAC1) | SMILES |
| --- | --- | --- |
| < 0.05 µM | < 0.02 µM | CN(CCCCCCC(=O)NO)c1ccc(Nc2nc(-c3ccc4cn[nH]c4c3)cn3ccnc23)cc1 [Compound 20] |
| < 0.05 µM | < 0.5 µM | CN(CCOCCC(=O)NO)c1ccc(Nc2nc(-c3ccc4cn[nH]c4c3)cn3ccnc23)cc1 [Compound 22] |
